Test results from ChEMBL document CHEMBL1671774, “An efficient synthesis of the precursor of AI-2, the signalling molecule for inter-species quorum sensing” (Bioorg Med Chem, 2011).
Activity calls are given as the source filed them. The rule behind the calls is not given here.

Columns and labels:
[1] = biological target: Autoinducer 2-binding periplasmic protein LuxP (Vibrio harveyi) (UniProt P54300); test: Induction of LuxP-dependent quorum sensing in Vibrio harveyi MM32 assessed as induction of bioluminescence intensity after 4 hrs
Sequence of Autoinducer 2-binding periplasmic protein LuxP (Vibrio harveyi) (P54300 whole entry): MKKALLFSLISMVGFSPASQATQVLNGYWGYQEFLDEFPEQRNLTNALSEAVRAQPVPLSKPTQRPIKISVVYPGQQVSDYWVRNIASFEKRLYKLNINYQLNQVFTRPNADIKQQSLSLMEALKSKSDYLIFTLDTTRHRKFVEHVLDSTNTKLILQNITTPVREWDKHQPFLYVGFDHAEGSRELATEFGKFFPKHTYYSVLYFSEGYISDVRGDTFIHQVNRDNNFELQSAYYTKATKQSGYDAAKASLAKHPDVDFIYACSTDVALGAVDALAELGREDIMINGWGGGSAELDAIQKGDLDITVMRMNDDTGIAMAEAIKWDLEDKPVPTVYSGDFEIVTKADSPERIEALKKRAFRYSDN

Escherichia coli [2] = test: Induction of LsrB-dependent quorum sensing in Escherichia coli KX1446 assessed as expression of Lsr system at 40 uM by beta-galactosidase reporter assay
Escherichia coli [3] = test: Ratio of compound activity over DPD activity for induction of LsrB-dependent quorum sensing in Escherichia coli KX1446
[4] = biological target: Autoinducer 2-binding periplasmic protein LuxP (Vibrio harveyi) (UniProt P54300); test: Binding affinity to LuxP in Vibrio harveyi MM32 by FRET method

Row | Activity [1] | Activity (Escherichia coli [2]) | Ratio (Escherichia coli [3]) | Activity [4] | Structure (SMILES)
1 | Active |  |  |  | C[C@]12OC[C@H](O)[C@@]1(O)O[B-](O)(O)O2
2 |  | Active | 6 |  | C[C@@]1(O)OC[C@H](O)C1(O)O
3 | Active | inactive |  | Active | CC(=O)C(=O)[C@@H](O)CO
